From the supplement of paper PMC6045584 come the findings set out here.

± gives the standard deviation of the averaged measurements.

Compound in test [1]: CCc1cc(Nc2nccc(-c3c(-c4ccc(OC)c(C(=O)Nc5c(F)cccc5F)c4)nc4ccccn34)n2)c(OC)cc1N1CCC(N2CCN(S(C)(=O)=O)CC2)CC1
Briefly: surviving fraction relative to DMSO-only wells; higher = less growth inhibition. Conditions: exposure time: 5 days. In a few lines: (§1)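 Tumour cell lines were grown to log phase and seeded at 250–500 cells per well in 384-well plates. They were exposed continuously to inhibitors at 0.5, 1, 5, 10, 50, 100, 500 and 1000 nM for five days, beginning 24 hours after seeding. Surviving fraction is CellTiter-Glo luminescence normalised to the median of DMSO-only wells.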

Compound in the next test: Cn1ncnc1[C@H]1c2n[nH]c(=O)c3cc(F)cc(c23)N[C@@H]1c1ccc(F)cc1 [BMN-673]
The test is described as above. Conditions: exposure time: 5 days. In a few lines:
as §1

Consider JIMT1 BREAST, for which the surviving fraction in test [1] (0.5 nM) is 0.977 ± 0.04; in test [1] (1 nM), 1.01 ± 0.014; in test [1] (5 nM), 1.01 ± 0.011; in test [1] (10 nM), 1.02 ± 0.017; in test [1] (50 nM) it was 0.992 ± 0.032; in test [1] (100 nM) it was 1.04 ± 0.027. The surviving fraction is 1 ± 0.031 in test [1] (500 nM); 0.986 ± 0.032 in test [1] (1000 nM); 0.928 ± 0.041 in the test with BMN-673 (0.5 nM); 0.913 ± 0.025 with BMN-673 (1 nM); 0.848 ± 0.011 in the test with BMN-673 (5 nM); 0.822 ± 0.011 with BMN-673 (10 nM). In addition, the surviving fraction with BMN-673 (50 nM) stood at 0.71 ± 0.035; with BMN-673 (100 nM), 0.617 ± 0.063; in the test with BMN-673 (500 nM) it was 0.474 ± 0.027; with BMN-673 (1000 nM), 0.395 ± 0.033.
Regarding PCI30 HEADNECK, the surviving fraction in test [1] (0.5 nM) stood at 0.889 ± 0.028; in test [1] (1 nM) it was 0.961 ± 0.15; in test [1] (5 nM), 1 ± 0.064; in test [1] (10 nM), 1.04 ± 0.045; in test [1] (50 nM), 0.947 ± 0.054; in test [1] (100 nM) it was 1.07 ± 0.032. Besides, the surviving fraction in test [1] (500 nM) was determined as 0.989 ± 0.065; in test [1] (1000 nM), 0.979 ± 0.065; with BMN-673 (0.5 nM), 1.01 ± 0.071; with BMN-673 (1 nM), 1.04 ± 0.092; in the test with BMN-673 (5 nM) it was 0.91 ± 0.063; with BMN-673 (10 nM), 0.737 ± 0.056. Besides, the surviving fraction with BMN-673 (50 nM) came to 0.585 ± 0.025; with BMN-673 (100 nM), 0.495 ± 0.0052; with BMN-673 (500 nM) it was 1.04 ± 0.025; in the test with BMN-673 (1000 nM), 1.08 ± 0.069.
Turning to SAOS2 BONE, the surviving fraction was determined as 1.1 ± 0.024 in test [1] (0.5 nM); 1.04 ± 0.025 in test [1] (1 nM); 1.11 ± 0.035 in test [1] (5 nM); 1.144 ± 0.0087 in test [1] (10 nM); 1.09 ± 0.016 in test [1] (50 nM); 1.19 ± 0.025 in test [1] (100 nM). For the same test system, the surviving fraction in test [1] (500 nM) was 1.16 ± 0.045; in test [1] (1000 nM), 1.11 ± 0.018; with BMN-673 (0.5 nM), 1.05 ± 0.058; with BMN-673 (1 nM), 1 ± 0.029; in the test with BMN-673 (5 nM) it was 0.999 ± 0.077; in the test with BMN-673 (10 nM) it was 0.831 ± 0.069. For the same test system, the surviving fraction turned out to be 0.675 ± 0.018 with BMN-673 (50 nM), 0.489 ± 0.047 with BMN-673 (100 nM), 0.285 ± 0.022 in the test with BMN-673 (500 nM) and 0.219 ± 0.047 with BMN-673 (1000 nM).
On to MDAMB157 BREAST, for which the surviving fraction was found to be 0.834 ± 0.049 in test [1] (0.5 nM); 0.96 ± 0.15 in test [1] (1 nM); 0.973 ± 0.12 in test [1] (5 nM); 0.996 ± 0.052 in test [1] (10 nM); 0.934 ± 0.058 in test [1] (50 nM); 1.04 ± 0.094 in test [1] (100 nM). The surviving fraction in test [1] (500 nM) amounted to 0.94 ± 0.06; in test [1] (1000 nM) it was 0.982 ± 0.14; with BMN-673 (0.5 nM), 0.999 ± 0.13; with BMN-673 (1 nM) it was 0.944 ± 0.081; with BMN-673 (5 nM), 0.844 ± 0.084; in the test with BMN-673 (10 nM), 0.795 ± 0.1. Besides, the surviving fraction with BMN-673 (50 nM) was determined as 0.541 ± 0.01; with BMN-673 (100 nM), 0.392 ± 0.01; with BMN-673 (500 nM), 0.228 ± 0.017; with BMN-673 (1000 nM) it was 0.257 ± 0.036.
For the test system U2OS BONE, the surviving fraction came to 0.992 ± 0.02 in test [1] (0.5 nM); 1 ± 0.017 in test [1] (1 nM); 1.06 ± 0.025 in test [1] (5 nM); 1.031 ± 0.0015 in test [1] (10 nM); 1.06 ± 0.023 in test [1] (50 nM); 1.06 ± 0.035 in test [1] (100 nM). Moreover, the surviving fraction in test [1] (500 nM) is 1.01 ± 0.013; in test [1] (1000 nM), 0.975 ± 0.019; in the test with BMN-673 (0.5 nM), 0.9887 ± 0.0081; in the test with BMN-673 (1 nM) it was 0.994 ± 0.055; with BMN-673 (5 nM) it was 0.969 ± 0.018; with BMN-673 (10 nM), 0.915 ± 0.029. The surviving fraction in the test with BMN-673 (50 nM) came to 0.834 ± 0.026; in the test with BMN-673 (100 nM), 0.732 ± 0.029; with BMN-673 (500 nM), 0.658 ± 0.029; in the test with BMN-673 (1000 nM), 0.647 ± 0.038.
As to 22RV1 PROSTATE, the surviving fraction in test [1] (0.5 nM) amounted to 1 ± 0.014; in test [1] (1 nM), 1.02 ± 0.023; in test [1] (5 nM) it was 0.989 ± 0.014; in test [1] (10 nM) it was 0.953 ± 0.026; in test [1] (50 nM), 1.01 ± 0.024; in test [1] (100 nM), 0.991 ± 0.057. Also, the surviving fraction in test [1] (500 nM) was determined as 0.989 ± 0.033; in test [1] (1000 nM), 0.946 ± 0.042; with BMN-673 (0.5 nM), 1.06 ± 0.073; with BMN-673 (1 nM) it was 1.01 ± 0.11; with BMN-673 (5 nM) it was 0.871 ± 0.14; with BMN-673 (10 nM), 0.776 ± 0.18. The surviving fraction with BMN-673 (50 nM) was 0.657 ± 0.09; with BMN-673 (100 nM), 0.64 ± 0.037; with BMN-673 (500 nM), 0.468 ± 0.061; in the test with BMN-673 (1000 nM), 0.324 ± 0.048.
As for HCC1954 BREAST, the surviving fraction in test [1] (0.5 nM) amounted to 0.996 ± 0.012; in test [1] (1 nM) it was 0.821 ± 0.02; in test [1] (5 nM) it was 0.904 ± 0.12; in test [1] (10 nM) it was 1.1 ± 0.052; in test [1] (50 nM), 0.982 ± 0.06; in test [1] (100 nM), 1 ± 0.1. In addition, the surviving fraction was found to be 0.913 ± 0.11 in test [1] (500 nM); 0.638 ± 0.068 in test [1] (1000 nM); 1.01 ± 0.17 in the test with BMN-673 (0.5 nM); 1.34 ± 0.34 with BMN-673 (1 nM); 1.25 ± 0.17 with BMN-673 (5 nM); 1.21 ± 0.12 in the test with BMN-673 (10 nM). The surviving fraction with BMN-673 (50 nM) was determined as 0.907 ± 0.038; with BMN-673 (100 nM), 0.804 ± 0.042; with BMN-673 (500 nM), 0.71 ± 0.12; in the test with BMN-673 (1000 nM), 0.74 ± 0.072.
As for HCC202 BREAST, the surviving fraction in test [1] (0.5 nM) is 1.11 ± 0.32; in test [1] (1 nM), 1.27 ± 0.15; in test [1] (5 nM) it was 1.21 ± 0.21; in test [1] (10 nM), 1.14 ± 0.17; in test [1] (50 nM), 1.4 ± 0.18; in test [1] (100 nM) it was 1.25 ± 0.13. The surviving fraction in test [1] (500 nM) is 1.14 ± 0.15; in test [1] (1000 nM), 1.18 ± 0.05; in the test with BMN-673 (0.5 nM), 0.932 ± 0.39; in the test with BMN-673 (1 nM), 1.15 ± 0.44; with BMN-673 (5 nM) it was 0.688 ± 0.18; in the test with BMN-673 (10 nM), 0.769 ± 0.34. In addition, the surviving fraction with BMN-673 (50 nM) was found to be 0.661 ± 0.13; in the test with BMN-673 (100 nM) it was 0.566 ± 0.14; with BMN-673 (500 nM) it was 0.81 ± 0.05; with BMN-673 (1000 nM), 0.671 ± 0.11.
